In patent US20060004029A1, “Nitrogen-containing aromatic derivatives” (priority 2003, published 2006):
pIC50: −log10 of the molar value.

Legend:
[1] = system: Human Umbilical Vein Endothelial Cells (HUVECs); assay: Inhibition against sandwich tube formation by vascular endothelial cells, FGF2-stimulated; format: cell-based; details: HUVEC, 20 ng/ml FGF2 and 10 ng/ml EGF, 4th day after addition
Experimental: (§1) Human Umbilical Vein Endothelial Cells (HUVECs) were isolated according to a reported method (Shinseikagaku Jikken Koza [New Biochemistry Experiment Lectures], “Saibo Baiyo Gijutsu” [Cell Culturing Techniques], p. 197-202), • and were cultured in a 5% CO2 incubator (37° C.) using EGM-2 medium (purchased from Clonetics Corp.) until the cells reached confluency.
(§2) An ice-cooled mixture of collagen: 5×RPMI 1640: reconstitution buffer (all purchased from Nitta Gelatin, Inc.) at 7:2:1 was dispensed at 0.4 ml into each well of a 24-well plate. After the solution was gelled by being stationed for 40 minutes in a 5% CO2 incubator (37° C.), HUVEC cell suspension was added at 0.4 ml to each well (using 1 to 1.2×10^5 cells, though the numbers of cells differ slightly according to the HUVEC lot), the HUVEC cell suspension being in human endothelial serum free medium (SFM, purchased from GIBCO BRL) containing added angiogenesis factors [20 ng/ml FGF2 (purchased from GIBCO BRL) and 10 ng/ml EGF (purchased from GIBCO BRL), or 25 ng/ml VEGF (purchased from Wako Pure Chemical Industries Co., Ltd.) and 10 ng/ml EGF, or 30 ng/ml HGF (purchased from R&D Co.) and 10 ng/ml EGF], and cultured overnight in a 5% CO2 incubator (37° C.). On the following day, the medium on the upper layer was aspirated off, and then 0.4 ml of an ice-cooled mixture of collagen: 5×RPMI 1640: reconstitution buffer (all purchased from Nitta Gelatin, Inc.) at 7:2:1 was superposed into each well prior to stationing for 4 hours in a 5% CO2 incubator (37° C.) for gelling. After adding 1.5 ml of an SFM solution containing each of the aforementioned angiogenesis factors and a diluted test substance onto the upper layer, culturing was performed in a 5% CO2 incubator (37° C.). Upon aspirating off the culture supernatant in each well on the 4th day after addition of the test substance, 0.4 ml of a 3.3 mg/ml MTT solution dissolved in PBS (purchased from Sigma Corp.) was added to each well and culturing was performed for approximately 2 hours in a 5% CO2 incubator (37° C.). The tubes formed in the collagen gel of each well were stained by MTT, the tube images were loaded into a computer (Macintosh), and the total length of the tubes was determined by image analysis software “MacScope” (purchased from Mitani Corp.). The ratio of the total length of the tubes formed in the well containing the test substance with respect to the total length of the tubes formed in the well containing no test substance was expressed as a percentage, and the concentration of each test substance required for 50% inhibition of tube formation (IC50) was determined from the ratio value.

[2] = system: Human Umbilical Vein Endothelial Cells (HUVECs); assay: Inhibition against sandwich tube formation by vascular endothelial cells, VEGF-stimulated; format: cell-based; details: HUVEC, 25 ng/ml VEGF and 10 ng/ml EGF, 4th day after addition
Experimental: as §1, §2

Compound `CCNC(=O)n1ccc2cc(Oc3ccnc(NC(=O)N4CCC(C)(O)CC4)c3)ccc21` [Example 78, 5-(2-(((4-Hydroxy-4-methylpiperidin-1-yl)carbonyl)amino)pyridin-4-yloxy)-1H-indole-1-carboxylic acid ethylamide] has a pIC50 [1] of 6.35 and a pIC50 [2] of 8.52.
